{"source": "patent US8236490B2", "about": "“Screening method for compounds that reduce ER stress” (EM Biotecnologia S.A., priority 2007, dated 2012)", "system": "DGI-TAUP301L cells (ER stress induced by mutant TAU-P301L protein)", "assay": "ER stress reporter (KAR2 UPRE-GFP) screening assay in DGI-TAUP301L yeast cells; fluorescence normalised to cell density", "format": "cell-based, Saccharomyces cerevisiae", "details": "2% galactose, 2 days at 30° C.", "description": "Screening was conducted with a DGI-TAUP301L yeast cell expressing the mutant TAU-P301L protein under the control of GAL1 promoter and containing the ER stress sensor reporter plasmid with GFP as reporter, described above in the “Construction of the ER sensor reporter plasmid” section. […] The resulting fluorescent signal was normalised to cell density and the normalised fluorescence was used as a direct measure of ER stress level in the cells.\nA commercial library containing 50 080 small molecules was screened along with 5 dipeptide molecules from an academic collaboration and 208 extracts from a proprietary natural extract collection. Active compounds, with the potential to modulate the deleterious effects of TAU-P301L expression, were identified by their ability to decrease normalised fluorescence, without influencing growth. Growth was determined by measuring optical density (OD) of a culture.\nDGI-TAUP301L cells were dispensed into 96-well plates on minimum medium containing 2% galactose to fully express the mutant protein, together with 10 μM candidate compound. All liquid handing steps were performed using a Janus Automated Workstation (Perkin Elmer). Plates were incubated for 2 days at 30° C. under shaking in a Liconic STX40 Automated Incubator. Growth and fluorescence were monitored with a Victor 3V microplate reader (PE). […]\n(§1) DGI-TAUP301L cells were pre-grown on a mixture of 2% galactose until reaching early exponential phase (OD=1-2). […] Growth and fluorescence were monitored for 2 days at 30° C. under agitation. […]\nas §1, §1, §1"}
{"smiles": "O=C(/C=C/c1ccccc1)NC(NC(=S)Nc1cccc2cccnc12)C(Cl)(Cl)Cl", "note": "(stereo not drawn) [salubrinal]", "values": [{"measurement": "reduction of ER stress signal", "setting": "100 μM salubrinal", "result": "~50", "unit": "%"}]}
{"smiles": "C[S+](C)[O-]", "note": "[DMSO]", "values": [{"measurement": "reduction of ER stress", "setting": "2% DMSO", "result": 35, "unit": "%"}]}
{"smiles": "C[N+](C)(C)CCO", "note": "[Choline, choline]", "values": [{"measurement": "reduction of ER stress", "setting": "0.4 M choline", "result": 35, "unit": "%"}]}
